Reference: ChEMBL document CHEMBL3621138, “Aminothiazoles: Hit to lead development to identify antileishmanial agents” (Eur J Med Chem, 2015)

Key:
[1] = Metabolic stability in CD1 mouse liver microsomes assessed as drug metabolism at 0.5 uM incubated for 30 mins in presence of NADPH; assay type: ADME; settings: read-out: Drug metabolism
[2] = Metabolic stability in golden Syrian hamster liver microsomes assessed as drug metabolism at 0.5 uM incubated for 30 mins in presence of NADPH; assay type: ADME, Mesocricetus auratus; settings: read-out: Drug metabolism
[3] = Oral bioavailability in Swiss Albino mouse at 1 mg/kg by LC-MS/MS method; assay type: ADME, organism-based; settings: in vivo
[4] = Tmax in Swiss Albino mouse at 25 mg/kg, po by LC-MS/MS method; assay type: ADME, organism-based; settings: in vivo
[5] = AUClast in Swiss Albino mouse at 1 mg/kg, iv by LC-MS/MS method; assay type: ADME, organism-based; parameters: dose 1 mg/kg, route intravenous, time 0 - last; settings: in vivo
[6] = AUC (infinity) in Swiss Albino mouse at 1 mg/kg, iv by LC-MS/MS method; assay type: ADME, organism-based; parameters: dose 1 mg/kg, time infinity, route intravenous; settings: in vivo
[7] = Cmax in Swiss Albino mouse at 1 mg/kg, iv by LC-MS/MS method; assay type: ADME, organism-based; parameters: dose 1 mg/kg, route intravenous; settings: in vivo
[8] = Terminal half-life in Swiss Albino mouse at 1 mg/kg, iv by LC-MS/MS method; assay type: ADME, organism-based; settings: in vivo, read-out: beta t1/2 (converted)
[9] = Cmax in Swiss Albino mouse at 25 mg/kg, po by LC-MS/MS method; assay type: ADME, organism-based; parameters: dose 25 mg/kg, route oral; settings: in vivo
[10] = Volume of distribution at steady state in Swiss Albino mouse at 1 mg/kg, iv by LC-MS/MS method; assay type: ADME, organism-based; settings: in vivo, read-out: Vdss
[11] = Clearance in Swiss Albino mouse at 1 mg/kg, iv by LC-MS/MS method; assay type: ADME, organism-based; settings: in vivo, read-out: CLH
[12] = AUC (infinity) in Swiss Albino mouse at 25 mg/kg, po by LC-MS/MS method; assay type: ADME, organism-based; parameters: dose 25 mg/kg, time infinity, route oral; settings: in vivo
[13] = AUClast in Swiss Albino mouse at 25 mg/kg, po by LC-MS/MS method; assay type: ADME, organism-based; parameters: dose 25 mg/kg, route oral, time 0 - last; settings: in vivo
[14] = Tmax in Swiss Albino mouse at 50 mg/kg, po by LC-MS/MS method; assay type: ADME, organism-based; settings: in vivo
[15] = Cmax in Swiss Albino mouse at 50 mg/kg, po by LC-MS/MS method; assay type: ADME, organism-based; parameters: dose 50 mg/kg, route oral; settings: in vivo
[16] = AUClast in Swiss Albino mouse at 50 mg/kg, po by LC-MS/MS method; assay type: ADME, organism-based; parameters: dose 50 mg/kg, time 0 - last, route oral; settings: in vivo

SMILES | metabolised at 0.5 h, 0.5 µM [1] | metabolised at 0.5 h, 0.5 µM [2] | other results
Cc1cccc(Nc2nc(-c3ccccn3)cs2)n1 | 100% | 100% | –
COc1cccc(-c2csc(Nc3ccc(Cl)cn3)n2)n1 | 75% | 100% | –
Cc1ccc(Nc2nc(-c3ccccn3)cs2)cc1C | 100% | 100% | –
COc1ccc(Nc2nc(-c3ccccn3)cs2)cc1 | 100% | 100% | –
COc1ccc(Nc2nc(-c3cccnc3)cs2)cc1 | 96% | 96% | –
COc1ccc(Nc2nc(-c3ncccn3)cs2)cc1 | 99% | 81% | –
CN(C)c1ccc(Nc2nc(-c3ccccn3)cs2)cc1 | 98% | 99% | –
c1ccc(-c2csc(Nc3ccc4c(c3)OCCO4)n2)nc1 | 99% | 100% | –
COc1ccc(Nc2nc(-c3ccccn3)cs2)cc1OC | 100% | 100% | –
COc1ccc(Nc2nc(-c3ccccn3)cs2)nc1 | 100% | 99% | –
COc1ccnc(-c2csc(Nc3ccc(Cl)cn3)n2)c1 | 97% | 100% | –
COc1ccc(-c2csc(Nc3ccc(Cl)cn3)n2)nc1 | 97% | 100% | –
FC(F)(F)c1ccc(-c2csc(Nc3ccc(Cl)cn3)n2)nc1 | 63% | 98% | –
CCOc1ccc(-c2csc(Nc3ccc(Cl)cn3)n2)nc1 | 62% | 10% | bioavailability [3]: 8%; Tmax [4]: 15 min; AUC(0-t) [5]: 178 ng·h/mL; AUC(0-inf) [6]: 183 ng·h/mL; Cmax [7]: 885 ng/mL; half-life [8]: 28.8 min; Cmax [9]: 167 ng/mL; Vd [10]: 1.99 L/kg; clearance [11]: 91 mL/min/kg; AUC(0-inf) [12]: 377 ng·h/mL; AUC(0-t) [13]: 362 ng·h/mL
Clc1ccc(Nc2nc(-c3ccccn3)c(Cl)s2)nc1 | 93% | 100% | –
COc1ccnc(-c2nc(Nc3ccc(Cl)cn3)sc2Cl)c1 | 90% | 100% | –
COc1ccc(-c2nc(Nc3ccc(Cl)cn3)sc2Cl)nc1 | 92% | 100% | –

SMILES | metabolised at 0.5 h, 0.5 µM [1] | metabolised at 0.5 h, 0.5 µM [2] | other results
FC(F)(F)c1ccc(-c2nc(Nc3ccc(Cl)cn3)sc2Cl)nc1 | 30% | 63% | –
CCOc1ccc(-c2nc(Nc3ccc(Cl)cn3)sc2Cl)nc1 | 56% | 87% | –
Clc1ccc(Nc2nc(-c3cccnn3)cs2)nc1 | 95% | 99% | –
Clc1ccc(Nc2nc(-c3cccnn3)c(Cl)s2)nc1 | 70% | 99% | –
Clc1ccc(Nc2nc(-c3ncccn3)cs2)nc1 | 99% | 100% | –
Clc1ccc(Nc2nc(-c3ncccn3)c(Cl)s2)nc1 | 71% | 99% | –
Clc1ccc(Nc2nc(-c3cnccn3)cs2)nc1 | 99% | 99% | –
Clc1ccc(Nc2nc(-c3cnccn3)c(Cl)s2)nc1 | 47% | 78% | –
Clc1ccc(Nc2nc(-n3cccn3)cs2)nc1 | 100% | 100% | –
Cc1ccc(Nc2nc(-c3ccccn3)cs2)cc1 | 100% | 100% | Tmax [14]: 15 min; Cmax [15]: 108 ng/mL; AUC(0-t) [16]: 99.8 ng·h/mL
Cc1ccnc(Nc2nc(-c3ccccn3)cs2)c1 | 99% | 99% | –
c1ccc(Nc2nc(-c3ccccn3)cs2)nc1 | 100% | 100% | –
Cc1cccnc1Nc1nc(-c2ccccn2)cs1 | 100% | 100% | –
Cc1ccc(Nc2nc(-c3ccccn3)cs2)nc1 | 100% | 100% | –
Clc1ccc(Nc2nc(-c3ccccn3)cs2)nc1 | 100% | 100% | –
COc1ccc(Nc2nc(-c3ccncc3)cs2)cc1 | 83% | 98% | –
